From article PMC8213057, “Targeting ALK2: An Open Science Approach to Developing Therapeutics for the Treatment of Diffuse Intrinsic Pontine Glioma” (Journal of Medicinal Chemistry, 2020) come the findings set out here.

The target in one experiment is MLK1/MAP3K9 (Homo sapiens, UniProt P80192). Particulars: 1 μM; Run 1, Run 2.
In the next experiment the target is T1, IKKb/IKBKB (Homo sapiens, UniProt O14920).
T1 sequence (O14920 1-756): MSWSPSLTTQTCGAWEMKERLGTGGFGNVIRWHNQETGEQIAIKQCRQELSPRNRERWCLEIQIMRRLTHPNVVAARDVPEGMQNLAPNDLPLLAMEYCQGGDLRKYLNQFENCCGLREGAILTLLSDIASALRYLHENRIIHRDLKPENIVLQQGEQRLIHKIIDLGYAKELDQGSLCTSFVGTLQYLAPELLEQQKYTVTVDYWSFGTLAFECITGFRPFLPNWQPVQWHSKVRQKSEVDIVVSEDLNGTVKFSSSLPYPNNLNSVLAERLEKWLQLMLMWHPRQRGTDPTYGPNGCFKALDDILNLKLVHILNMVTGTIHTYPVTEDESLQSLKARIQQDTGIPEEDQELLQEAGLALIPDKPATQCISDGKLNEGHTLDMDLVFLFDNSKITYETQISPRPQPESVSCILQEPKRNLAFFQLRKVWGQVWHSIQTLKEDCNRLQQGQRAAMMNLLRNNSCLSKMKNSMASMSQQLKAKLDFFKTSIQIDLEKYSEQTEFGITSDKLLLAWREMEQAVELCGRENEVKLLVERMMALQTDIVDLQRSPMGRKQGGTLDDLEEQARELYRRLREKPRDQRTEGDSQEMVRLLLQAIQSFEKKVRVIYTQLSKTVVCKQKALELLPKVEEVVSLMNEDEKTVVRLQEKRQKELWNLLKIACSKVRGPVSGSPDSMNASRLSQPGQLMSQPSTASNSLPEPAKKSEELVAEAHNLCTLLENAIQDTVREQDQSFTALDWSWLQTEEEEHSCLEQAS
Particulars: 1 μM; Run 1, Run 2.

The target of another experiment is T2, BMX/ETK (Homo sapiens, UniProt P51813).
T2 sequence (P51813 1-675): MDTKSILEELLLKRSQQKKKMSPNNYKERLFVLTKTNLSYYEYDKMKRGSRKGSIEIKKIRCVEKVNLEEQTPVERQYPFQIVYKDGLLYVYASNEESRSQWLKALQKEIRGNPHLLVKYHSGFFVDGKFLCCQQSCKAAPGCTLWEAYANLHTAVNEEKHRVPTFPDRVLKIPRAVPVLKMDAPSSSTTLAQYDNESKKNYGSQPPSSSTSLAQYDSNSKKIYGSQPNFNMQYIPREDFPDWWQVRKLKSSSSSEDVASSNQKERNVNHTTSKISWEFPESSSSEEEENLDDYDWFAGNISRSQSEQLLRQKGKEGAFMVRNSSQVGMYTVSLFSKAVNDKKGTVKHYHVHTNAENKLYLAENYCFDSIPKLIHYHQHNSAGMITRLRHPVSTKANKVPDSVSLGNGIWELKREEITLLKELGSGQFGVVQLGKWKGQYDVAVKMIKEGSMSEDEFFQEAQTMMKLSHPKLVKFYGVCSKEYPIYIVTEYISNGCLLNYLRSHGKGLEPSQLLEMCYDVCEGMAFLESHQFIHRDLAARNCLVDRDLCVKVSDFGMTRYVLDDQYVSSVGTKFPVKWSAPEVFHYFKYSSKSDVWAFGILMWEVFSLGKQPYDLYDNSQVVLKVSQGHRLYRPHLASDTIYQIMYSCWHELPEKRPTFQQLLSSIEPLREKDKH
Particulars: 1 μM; Run 1, Run 2.

The next experiment concerns the target STK21/CIT (Homo sapiens, UniProt O14578). Kind of experiment: biochemical. To be noted: read-out: % enzyme activity, 1 μM; Run 1, Run 2.
In another experiment the target is T3, MKK4 (Homo sapiens, UniProt P45985).
T3 sequence (P45985 1-399): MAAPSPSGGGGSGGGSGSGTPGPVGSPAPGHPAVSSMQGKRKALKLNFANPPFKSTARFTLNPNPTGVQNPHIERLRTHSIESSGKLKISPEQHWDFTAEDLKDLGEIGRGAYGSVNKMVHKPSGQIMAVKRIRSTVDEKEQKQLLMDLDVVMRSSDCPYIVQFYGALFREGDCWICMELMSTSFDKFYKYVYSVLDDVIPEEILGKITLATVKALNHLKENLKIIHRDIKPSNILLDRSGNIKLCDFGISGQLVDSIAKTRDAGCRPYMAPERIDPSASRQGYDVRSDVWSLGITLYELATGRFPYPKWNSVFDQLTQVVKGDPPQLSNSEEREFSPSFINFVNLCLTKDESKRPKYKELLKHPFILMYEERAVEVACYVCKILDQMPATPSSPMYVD
Particulars: 1 μM; Run 1, Run 2.

Another experiment has as its target AKT2 (Homo sapiens, UniProt P31751). Particulars: 1 μM; Run 1, Run 2.
The next experiment deals with DAPK2 (Homo sapiens, UniProt Q9UIK4). The experiment can be described thus: biochemical. To be noted: read-out: % enzyme activity, 1 μM; Run 1, Run 2.
For a further experiment, the target named is TRKA (Homo sapiens, UniProt P04629). The experiment can be described thus: biochemical. To be noted: read-out: % enzyme activity, 1 μM; Run 1, Run 2.
The target of a further experiment is T4, NEK5 (Homo sapiens, UniProt Q6P3R8).
T4 sequence (Q6P3R8 1-708): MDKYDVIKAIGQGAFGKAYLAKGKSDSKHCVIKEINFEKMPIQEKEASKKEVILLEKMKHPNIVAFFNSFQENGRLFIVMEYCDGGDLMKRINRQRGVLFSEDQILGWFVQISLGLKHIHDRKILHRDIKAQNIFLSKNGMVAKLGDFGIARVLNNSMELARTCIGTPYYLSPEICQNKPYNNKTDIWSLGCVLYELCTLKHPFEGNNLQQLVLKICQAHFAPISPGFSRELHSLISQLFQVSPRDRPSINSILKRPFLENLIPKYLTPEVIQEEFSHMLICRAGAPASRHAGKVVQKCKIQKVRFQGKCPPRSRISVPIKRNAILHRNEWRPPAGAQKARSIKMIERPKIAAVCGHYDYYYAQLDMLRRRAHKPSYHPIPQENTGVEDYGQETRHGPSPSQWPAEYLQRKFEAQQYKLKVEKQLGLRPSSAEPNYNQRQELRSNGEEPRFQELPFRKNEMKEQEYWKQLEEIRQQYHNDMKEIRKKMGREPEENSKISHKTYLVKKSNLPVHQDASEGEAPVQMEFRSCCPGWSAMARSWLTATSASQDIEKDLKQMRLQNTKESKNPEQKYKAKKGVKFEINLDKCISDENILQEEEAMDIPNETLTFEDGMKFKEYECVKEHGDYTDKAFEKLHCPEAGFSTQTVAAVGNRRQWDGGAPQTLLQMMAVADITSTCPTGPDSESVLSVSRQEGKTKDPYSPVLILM
The experiment can be described thus: biochemical. Particulars: read-out: % enzyme activity, 1 μM; Run 1, Run 2.

The next experiment has as its target CAMK2b (Homo sapiens, UniProt Q13554). Particulars: 1 μM; Run 1, Run 2.

Sequence of CAMK2b (Q13554 whole entry): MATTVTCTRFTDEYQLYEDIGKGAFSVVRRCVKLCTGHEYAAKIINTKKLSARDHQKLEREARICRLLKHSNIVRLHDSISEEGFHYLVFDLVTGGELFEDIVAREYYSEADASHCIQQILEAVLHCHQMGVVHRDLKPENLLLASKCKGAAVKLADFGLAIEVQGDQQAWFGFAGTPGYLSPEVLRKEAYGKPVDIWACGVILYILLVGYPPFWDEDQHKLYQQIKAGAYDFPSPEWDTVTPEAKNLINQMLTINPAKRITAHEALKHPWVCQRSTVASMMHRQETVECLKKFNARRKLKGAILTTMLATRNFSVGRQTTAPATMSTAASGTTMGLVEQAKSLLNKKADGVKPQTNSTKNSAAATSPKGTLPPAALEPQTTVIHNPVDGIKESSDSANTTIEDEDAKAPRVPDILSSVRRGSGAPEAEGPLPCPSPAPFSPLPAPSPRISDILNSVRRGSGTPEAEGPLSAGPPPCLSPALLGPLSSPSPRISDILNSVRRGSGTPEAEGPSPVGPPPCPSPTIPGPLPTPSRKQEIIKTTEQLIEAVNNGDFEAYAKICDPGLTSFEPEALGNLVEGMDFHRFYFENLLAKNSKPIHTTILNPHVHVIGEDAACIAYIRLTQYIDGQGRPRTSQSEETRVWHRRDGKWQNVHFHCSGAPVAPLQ
Sequence of MLK1/MAP3K9 (P80192 whole entry): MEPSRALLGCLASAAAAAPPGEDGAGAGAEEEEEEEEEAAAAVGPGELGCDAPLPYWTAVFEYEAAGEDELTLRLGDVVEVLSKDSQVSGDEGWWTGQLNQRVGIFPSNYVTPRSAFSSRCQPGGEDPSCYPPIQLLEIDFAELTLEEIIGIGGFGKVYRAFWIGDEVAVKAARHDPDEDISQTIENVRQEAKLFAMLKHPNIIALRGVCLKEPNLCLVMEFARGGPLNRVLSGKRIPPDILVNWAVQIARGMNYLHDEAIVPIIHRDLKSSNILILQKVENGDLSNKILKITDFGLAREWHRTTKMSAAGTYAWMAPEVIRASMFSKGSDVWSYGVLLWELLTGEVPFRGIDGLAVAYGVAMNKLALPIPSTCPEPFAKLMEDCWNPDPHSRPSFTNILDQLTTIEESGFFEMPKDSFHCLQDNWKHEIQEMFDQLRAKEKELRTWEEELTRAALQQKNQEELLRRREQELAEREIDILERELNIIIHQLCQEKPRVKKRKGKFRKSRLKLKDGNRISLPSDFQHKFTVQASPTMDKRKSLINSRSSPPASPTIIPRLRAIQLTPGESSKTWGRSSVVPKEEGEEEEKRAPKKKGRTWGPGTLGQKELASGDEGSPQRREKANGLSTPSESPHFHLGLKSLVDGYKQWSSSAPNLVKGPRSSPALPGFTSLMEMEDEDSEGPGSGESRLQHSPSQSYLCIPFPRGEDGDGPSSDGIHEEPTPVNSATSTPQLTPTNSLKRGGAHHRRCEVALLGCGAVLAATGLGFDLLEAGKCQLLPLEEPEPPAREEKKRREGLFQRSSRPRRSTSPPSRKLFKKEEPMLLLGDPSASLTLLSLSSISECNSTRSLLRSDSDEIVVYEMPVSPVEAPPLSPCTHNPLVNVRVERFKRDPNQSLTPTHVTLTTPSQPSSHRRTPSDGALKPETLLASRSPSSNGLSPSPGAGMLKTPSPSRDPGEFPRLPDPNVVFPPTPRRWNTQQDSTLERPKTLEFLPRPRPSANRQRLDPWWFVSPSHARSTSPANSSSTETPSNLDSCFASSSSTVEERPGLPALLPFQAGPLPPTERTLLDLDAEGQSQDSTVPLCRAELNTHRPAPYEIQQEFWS
Sequence of AKT2 (P31751 whole entry): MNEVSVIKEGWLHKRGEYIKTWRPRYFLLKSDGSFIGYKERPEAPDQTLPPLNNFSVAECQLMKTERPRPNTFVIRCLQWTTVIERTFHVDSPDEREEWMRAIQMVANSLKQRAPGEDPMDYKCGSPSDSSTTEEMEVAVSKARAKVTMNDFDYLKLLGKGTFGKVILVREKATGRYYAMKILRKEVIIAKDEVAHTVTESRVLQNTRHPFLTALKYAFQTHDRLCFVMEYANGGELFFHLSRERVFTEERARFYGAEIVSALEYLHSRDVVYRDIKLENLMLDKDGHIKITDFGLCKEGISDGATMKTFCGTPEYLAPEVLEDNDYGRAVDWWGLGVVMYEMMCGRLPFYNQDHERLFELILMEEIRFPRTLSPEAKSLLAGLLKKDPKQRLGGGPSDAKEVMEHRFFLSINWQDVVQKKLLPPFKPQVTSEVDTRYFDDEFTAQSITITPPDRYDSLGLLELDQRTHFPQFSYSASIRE
Sequence of TRKA (P04629 33-796): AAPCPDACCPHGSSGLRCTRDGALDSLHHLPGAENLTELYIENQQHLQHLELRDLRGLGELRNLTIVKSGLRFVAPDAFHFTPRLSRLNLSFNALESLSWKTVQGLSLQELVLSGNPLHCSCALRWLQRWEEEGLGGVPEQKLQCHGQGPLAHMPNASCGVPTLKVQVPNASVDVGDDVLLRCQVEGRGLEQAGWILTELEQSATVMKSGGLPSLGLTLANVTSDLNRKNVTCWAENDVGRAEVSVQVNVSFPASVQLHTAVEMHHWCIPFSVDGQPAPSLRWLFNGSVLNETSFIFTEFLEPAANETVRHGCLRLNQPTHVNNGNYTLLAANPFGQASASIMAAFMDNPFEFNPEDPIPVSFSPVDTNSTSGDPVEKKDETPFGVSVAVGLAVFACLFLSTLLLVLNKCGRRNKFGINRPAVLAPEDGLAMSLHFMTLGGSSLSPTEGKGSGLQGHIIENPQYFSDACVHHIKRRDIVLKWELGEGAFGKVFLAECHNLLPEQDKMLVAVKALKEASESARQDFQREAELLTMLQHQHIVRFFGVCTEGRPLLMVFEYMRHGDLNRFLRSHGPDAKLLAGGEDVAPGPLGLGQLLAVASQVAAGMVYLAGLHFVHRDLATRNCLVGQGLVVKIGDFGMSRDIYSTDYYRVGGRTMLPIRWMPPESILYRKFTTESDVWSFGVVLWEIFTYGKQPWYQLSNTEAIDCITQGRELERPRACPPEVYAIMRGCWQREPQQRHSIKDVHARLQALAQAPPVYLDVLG
Sequence of DAPK2 (Q9UIK4 whole entry): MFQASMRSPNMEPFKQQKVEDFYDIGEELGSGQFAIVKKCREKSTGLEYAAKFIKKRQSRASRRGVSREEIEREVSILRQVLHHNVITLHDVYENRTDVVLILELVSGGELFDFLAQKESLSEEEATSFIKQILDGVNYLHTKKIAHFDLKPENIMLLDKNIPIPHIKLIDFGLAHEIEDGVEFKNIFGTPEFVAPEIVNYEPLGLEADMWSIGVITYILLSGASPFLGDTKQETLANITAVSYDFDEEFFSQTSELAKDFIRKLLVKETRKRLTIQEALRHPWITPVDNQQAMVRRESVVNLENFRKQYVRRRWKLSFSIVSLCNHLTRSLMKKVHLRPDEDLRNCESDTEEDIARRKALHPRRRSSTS

For `COc1cc(-c2cncc(-c3ccc(N4CCN(C)CC4)cc3)c2C)cc(F)c1C(N)=O` [Compound 26a, 2-Fluoro-6-methoxy-4-(4-methyl-5-(4-(4-methylpiperazin-1-yl)phenyl)pyridin-3-yl)benzamide], the “% enzyme activity” value came to 110.44% at MLK1/MAP3K9; 101.39% on IKKb/IKBKB; 102.04% at BMX/ETK; 98.66% at MKK4; 91.70% on AKT2; 83.40% on CAMK2b. Besides, the remaining activity at 1 µM at STK21/CIT was 88.8%; on DAPK2, 103%; at TRKA it was 91.8%; at NEK5 it was 98.7%.
Consider `COc1cc(-c2cncc(-c3ccc(N4C[C@@H](C)N(C)[C@@H](C)C4)cc3)c2C)cc(F)c1C(N)=O` [Compound 26c, 2-Fluoro-6-methoxy-4-(4-methyl-5-(4-((3R,5S)-3,4,5-trimethylpiperazin-1-yl)phenyl)pyridin-3-yl)benzamide], for which the “% enzyme activity” value at MLK1/MAP3K9 came to 98.95%; at IKKb/IKBKB it was 100.59%; on BMX/ETK, 100.72%; at MKK4, 93.94%; at AKT2, 92.08%; on CAMK2b, 91.32%. The remaining activity at 1 µM at STK21/CIT is 89.1%; on DAPK2, 100%; at TRKA, 95.2%; on NEK5 it was 93.2%.
